Structures are written as SMILES. Marks after values point to notes of the source that are not given here.

Nine compounds from US12509437B2, “Substituted thiophene carboxamides and derivatives thereof as microbicides” (Bayer Aktiengesellschaft, priority 2019, dated 2025) can be followed below.

A short description of series [1]: LogP by HPLC on reversed phase columns (EEC directive 79/831 Annex V.A8). Type of series: physicochemical. To be noted: reversed phase HPLC columns; method [a]. An outline of the steps: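 Reversed-phase HPLC, calibrated with straight-chain alkan-2-ones (C3–C16) of known LogP; values by linear interpolation of retention times between successive alkanones. Multiple values from one method are joined by "+"; lambda-max taken from 200–400 nm UV spectra at chromatographic peaks.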

Series [2] deals with salicylate responsive promoter sequence of the PR1 (pathogenesis-related protein I) gene (AT2G14610). In words: Induction of defense gene expression in Arabidopsis thaliana (PR1 promoter-GFP reporter plants). Type of series: in vivo. The note with it: 72 h, 3rd day after spraying, mock treated leaves set as 1.00, read-out: relative fluorescence value. The gist of the method:
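Transgenic A. thaliana carrying GFP under the salicylate-responsive PR1 promoter, grown five days, then sprayed with compounds. Whole-plant fluorescence imaged and quantified on day 3 post-spray, expressed relative to mock-treated leaf background set at 1.00.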

Series [3] deals with Colletotrichum lindemuthianum. In words: In vivo preventive test on Colletotrichum lindemuthianum (Anthracnose on bean). To be noted: sprayed 72 hours before inoculation, evaluated 6 days after inoculation; for pest or weed control at 500 ppm: 500 ppm of active ingredient. An outline of the steps:
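Young bean plants were sprayed with compound in acetone/DMSO/Tween diluted in water, then inoculated 72 h later with C. lindemuthianum spores. Incubation was 24 h at 20 °C/100% RH, then 5 days at 20 °C/90% RH. Efficacy scored 6 days post-inoculation: 0% equals solvent-treated control, 100% means no disease.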

Series [4] relates to Peronospora parasitica. In words: In vivo preventive test on Peronospora parasitica (Crucifer downy mildew) on cabbage. To be noted: Hyaloperonospora parasitica, 120 h, sprayed 72 hours before inoculation, evaluated 5 days after inoculation, read-out: efficacy; for pest or weed control at 31 ppm: 31 ppm of active ingredient; for pest or weed control at 125 ppm: 125 ppm of active ingredient; for pest or weed control at 500 ppm: 500 ppm of active ingredient. The gist of the method:
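Young cabbage plants were sprayed with compound in aqueous acetone/DMSO/Tween, then inoculated 72 h later with P. parasitica spores and held 5 days at 20 °C, 100% RH. Efficacy scored 5 days post-inoculation: 0% equals solvent-treated controls, 100% means no disease.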

For series [5], the system named is Uromyces appendiculatus. In words: In vivo preventive test on Uromyces appendiculatus (bean rust). The note with it: 240 h, sprayed 72 hours before inoculation, evaluated 10 days after inoculation, read-out: efficacy; for pest or weed control at 125 ppm: 125 ppm of active ingredient; for pest or weed control at 500 ppm: 500 ppm of active ingredient; for pest or weed control at 31 ppm: 31 ppm of active ingredient. An outline of the steps:
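Young bean plants sprayed with compound in acetone/DMSO/Tween diluted in water, then inoculated 72 h later with spore suspension. Incubated 24 h at 20° C., 100% RH, then 9 days at 20° C., 70-80% RH. Efficacy scored 10 days post-inoculation, 0% = untreated-control level, 100% = no disease.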

Series [6] concerns Pseudomonas syringae pv. tomato. In words: In vivo preventive test on Pseudomonas syringae pv. tomato (bacterial speck on tomato). To be noted: sprayed 72 hours before inoculation, evaluated 5 or 6 days after inoculation, read-out: efficacy; for pest or weed control at 500 ppm: 500 ppm of active ingredient; for pest or weed control at 125 ppm: 125 ppm of active ingredient. The method, then: The tested active ingredients were prepared by homogenization in a mixture of acetone/Dimethyl sulfoxide/Tween®, and then diluted with water to obtain the desired active material concentration.
The young plants of tomato were treated by spraying the active ingredient prepared as described above. Control plants were treated only with an aqueous solution of acetone/Dimethyl sulfoxide/Tween®.
After 72 hours, the plants were contaminated by spraying the leaves with an aqueous bacteria suspension of Pseudomonas syringae pv. tomato. The contaminated tomato plants were incubated for 4 days in saturated atmosphere at 22° C. day/20° C. night−70% HR and then for 1 or 2 days at 22° C. day/20° C. night at 70-80% relative humidity.
The test was evaluated 5 or 6 days after the inoculation. 0% means an efficacy which corresponds to that of the control plants while an efficacy of 100% means that no disease was observed.

The subject of series [7] is Alternaria alternata. In words: Alternaria alternata in vitro cell test. The note with it: 120 h, 5 days incubation, read-out: efficacy (inhibition of fungal growth; no direct activity); for inhibition at 5 ppm: 5 ppm of active ingredient; for inhibition at 20 ppm: 20 ppm of active ingredient. Type of series: cell-based. An outline of the steps:
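A. alternata spores in glucose/peptone/yeast-extract liquid medium were exposed to DMSO-solubilized compound (final DMSO ≤1%). After 5 days incubation, mycelium growth read spectrometrically; inhibition derived from absorbance relative to fungicide-free control wells.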

Series [8] has as its system Xanthomonas campestris pv. campestris. The series is described as follows: Xanthomonas campestris pv. campestris in vitro cell test. The note with it: 24 h of incubation, read-out: efficacy (inhibition of bacteria growth; no direct activity); for inhibition at 5 ppm: 5 ppm of active ingredient; for inhibition at 20 ppm: 20 ppm of active ingredient. Type of series: cell-based. The gist of the method: (§1)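 Bacteria from liquid pre-culture diluted to set OD in LB broth and exposed to compounds dissolved in DMSO (final ≤1%). After 24 h, growth read by absorbance; inhibition derived relative to compound-free control wells.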

The subject of series [9] is Pseudomonas syringae pv. tomato. In words: Pseudomonas syringae pv. tomato in vitro cell test. Type of series: cell-based. The note with it: 20 ppm of active ingredient, 24 h of incubation, read-out: efficacy (inhibition of bacteria growth; no direct activity). The gist of the method:
as §1

Series [10] relates to Xanthomonas campestris pv. campestris. In words: In vivo preventive test on Xanthomonas campestris pv. campestris (black rot on cabbage). The note with it: Xanthomonas campestris, sprayed 72 hours before inoculation, evaluated 8 or 10 days after inoculation, read-out: efficacy; for pest or weed control at 31 ppm: 31 ppm of active ingredient; for pest or weed control at 500 ppm: 500 ppm of active ingredient. An outline of the steps: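 Young cabbage plants sprayed preventively with compound formulated in acetone/DMSO/Tween and diluted in water, then inoculated 72 h later with a bacterial spray. Kept at 27° C, 95% relative humidity; disease scored after 8 or 10 days as % efficacy versus solvent-treated controls (0% = control, 100% = no disease).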

In series [11] the test system is Colletotrichum lindemuthianum. The series is described as follows: Colletotrichum lindemuthianum in vitro cell test. Type of series: cell-based. The note with it: 144 h, 6 days incubation, read-out: efficacy (inhibition of fungal growth; no direct activity); for inhibition at 5 ppm: 5 ppm of active ingredient. The gist of the method: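 C. lindemuthianum spore suspension grown in liquid glucose/peptone/yeast-extract medium with compound (final DMSO ≤1%). After 6 days, mycelial growth measured by absorbance; inhibition calculated versus fungicide-free control wells.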

Where [12] appears, read: Colletotrichum lindemuthianum, 144 h, 125 ppm of active ingredient, read-out: efficacy.
Setting [13] is: Colletotrichum lindemuthianum, 144 h, read-out: efficacy.

Take `COC(=O)C(CC(F)F)NC(=O)c1sc(Br)c(Br)c1C` (stereo not shown) [I.108]: the chromatographic logP in [1] is 3.33. Moreover, the fold induction at 75 ppm in series [2] is above 2. Also, the fold induction at 300 ppm in series [2] is above 2. Further, the pest or weed control at 125 ppm in series [3] (setting [12]) was in the range of 80 to 89%; in [4], 70 to 79%; in series [5] it was 90 to 100%. For the same compound, the pest or weed control at 500 ppm was 90 to 100% in series [3] (setting [13]), 90 to 100% in [4], 90 to 100% in series [5] and 70 to 79% in [6]. In [4], the pest or weed control at 31 ppm was in the range of 70 to 79%. The inhibition at 5 ppm in series [7] and in series [8] was at most 30% each time. The inhibition at 20 ppm in series [7], in series [8] and in series [9] was at most 30% throughout.
`COC(=O)[C@H](CCCNC(=N)N)NC(=O)c1sc(Cl)c(Cl)c1C` [I.079] showed a chromatographic logP in series [1] of 1.68. Besides, in series [2], the fold induction at 300 ppm is above 2. In addition, the pest or weed control at 31 ppm in series [4] was 80 to 89%; in series [10], 70 to 79%. In addition, in series [4], the pest or weed control at 125 ppm lay within 90 to 100%. Also, the pest or weed control at 500 ppm in series [4] was 90 to 100%; in [5], 80 to 89%; in [6], 70 to 79%. Besides, the inhibition at 5 ppm in [7], in series [11] and in series [8] was at most 30% in each case. For the same compound, the inhibition at 20 ppm in [11] (20 ppm of active ingredient), in series [8] and in series [9] was at most 30% throughout.
For the compound `O=C(NC(C(=O)O)C1CC1)c1cc(Cl)c(Cl)s1` (stereo not shown) [CMP9, reference compound], in [3] (125 ppm of active ingredient), the efficacy is listed as 30* %. The figures for the pest or weed control at 125 ppm in series [3] (setting [12]), in [5] and in [6] were 30%, below 40% and 34%, respectively. Moreover, the pest or weed control at 31 ppm in series [10] was below 20%. Moreover, the pest or weed control at 500 ppm in series [10] is 0%.
The compound `Cc1c(C(=O)NC2(C(=O)O)CCC2)sc(Br)c1Br` [I.137] had a chromatographic logP in series [1] of 2.63. In series [2], the fold induction at 75 ppm is above 2. For the same compound, in [2], the fold induction at 300 ppm is above 2. The pest or weed control at 500 ppm in series [3] (setting [13]) lay within 90 to 100%; in series [4] it was 90 to 100%; in series [10] it was 90 to 100%; in [5], 90 to 100%; in series [6] it was 70 to 79%. Also, in series [4], the pest or weed control at 31 ppm lay in the range of 70 to 79%. Also, the pest or weed control at 125 ppm in series [4], in [10] (125 ppm of active ingredient) and in [5] was 90 to 100% each time.
Regarding `CCOC(=O)C1(NC(=O)c2cc(Br)c(Br)s2)CC1` [CMP2, reference compound], the pest or weed control at 125 ppm in [3] (setting [12]) is 0%; in series [4] it was below 30%. For the same compound, the pest or weed control at 500 ppm is 0% in [3] (setting [13]), 0% in series [10], below 30% in [5] and below 40% in series [6]. In addition, the pest or weed control at 31 ppm in series [10] was 0%; in [5], below 40%.
In [1], `COC(=O)C(NC(=O)c1sc(Cl)c(Cl)c1C)c1cccs1` (stereo not shown) [I.165] came in with a chromatographic logP of 3.81. For the same compound, the fold induction at 300 ppm in series [2] is above 2. Besides, the pest or weed control at 31 ppm in [3] (Colletotrichum lindemuthianum, 144 h, 31 ppm of active ingredient, read-out: efficacy) is 80 to 89%; in [4], 90 to 100%; in [5] it was 90 to 100%. Further, the pest or weed control at 125 ppm in series [3] (setting [12]) was in the range of 80 to 89%; in [4] it was 90 to 100%; in [5], 90 to 100%; in series [6], 80 to 89%. Also, the inhibition at 5 ppm in [7], in series [11] and in series [8] was at most 30% in each case. For the same compound, the inhibition at 20 ppm in [7], in series [8] and in [9] was at most 30% in each case.
`CCOC(=O)C(NC(=O)c1sc(Cl)c(Cl)c1C)C1CC1` (stereo not shown) [I.083]: the chromatographic logP in [1] came out at 3.76. Moreover, the fold induction at 300 ppm in series [2] is above 2. Moreover, the pest or weed control at 500 ppm in series [3] (setting [13]), in series [4] and in series [5] was 90 to 100% throughout. Further, the pest or weed control at 31 ppm in series [4] and in series [5] was 90 to 100% each time. Besides, the pest or weed control at 125 ppm in series [4] was in the range of 90 to 100%; in series [5] it was 90 to 100%; in series [6], 70 to 79%. For the same compound, the inhibition at 5 ppm in series [7], in series [11] and in series [8] was at most 30% in each case. For the same compound, the inhibition at 20 ppm in series [7], in series [8] and in [9] was at most 30% each time.
Regarding `COC(=O)C(C)(C)NC(=O)c1sc(Cl)c(Cl)c1C` [I.176], in series [1], the chromatographic logP was found to be 3.16. In addition, in [2], the fold induction at 75 ppm is above 2. In addition, in series [2], the fold induction at 300 ppm is above 2. Also, the pest or weed control at 31 ppm in [4] was in the range of 70 to 79%; in series [5], 90 to 100%. In addition, the pest or weed control at 125 ppm in [4] is 90 to 100%; in series [5], 90 to 100%; in series [6], 70 to 79%. The inhibition at 5 ppm in series [7], in series [11] and in series [8] was at most 30% each time. Also, the inhibition at 20 ppm in [7], in series [8] and in series [9] was at most 30% each time.
For the compound `COC(=O)CC[C@H](NC(=O)c1cc(Cl)c(Cl)s1)C(=O)OC` [CMP12, reference compound], the pest or weed control at 125 ppm in series [3] (setting [12]) was below 20%. The pest or weed control at 31 ppm in series [6] (31 ppm of active ingredient) was determined as 10%.
